Experimental data as given in PubChem BioAssay AID248 (DTP/NCI, 2004).
Several values for one entry are separate records, joined by “and”; a condition that tells them apart may be missing. Equal values may be shown once. Inconclusive results and toxic doses are left out. Rule as the data show it: active = T/C of 150% or more; inactive = T/C below 125%.

System: L1210 leukemia ip in BDF1 mice, survival T/C
Test: NCI In Vivo Anticancer Drug Screen. Data for tumor model L1210 Leukemia (intraperitoneal) in B6D2F1 (BDF1) mice
Conditions: higher = longer survival
Outline: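 In this screen, tumor-bearing mice given compound are compared to those given vehicle, and their survival values are reported as a treated-to-control quotient.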

[1] = endpoint: mean survival time, dose: 100.0 mg/kg/injection, schedule: Q01DX001 (ip), vehicle: saline with Tween-80
[2] = endpoint: mean survival time, dose: 200.0 mg/kg/injection, schedule: Q01DX001 (ip), vehicle: saline with Tween-80
[3] = endpoint: mean survival time, dose: 400.0 mg/kg/injection, schedule: Q01DX001 (ip), vehicle: saline with Tween-80
[4] = endpoint: mean survival time, dose: 100.0 mg/kg/injection, schedule: Q01DX009 (ip), vehicle: Klucel (hydroxypropylcellulose) (HPC)
[5] = endpoint: mean survival time, dose: 200.0 mg/kg/injection, schedule: Q01DX009 (ip), vehicle: Klucel (hydroxypropylcellulose) (HPC)
[6] = endpoint: mean survival time, dose: 400.0 mg/kg/injection, schedule: Q01DX009 (ip), vehicle: Klucel (hydroxypropylcellulose) (HPC)

Measured: T/C

CN(C)c1nc(N(C)C)nc(N(C)C)n1
inactive: endpoint: mean survival time, dose: 2.5 mg/kg/injection, schedule: Q03HX040 (ip), vehicle: acetone 103 % of control | endpoint: mean survival time, dose: 4.8 mg/kg/injection, schedule: Q01DX Z (ip), vehicle: other 94 % of control | endpoint: mean survival time, dose: 5.0 mg/kg/injection, schedule: Q03HX040 (ip), vehicle: acetone 108 % of control | endpoint: mean survival time, dose: 5.0 mg/kg/injection, schedule: Q06HX020 (ip), vehicle: acetone 110 % of control | endpoint: mean survival time, dose: 5.5 mg/kg/injection, schedule: Q01DX009 (ip), vehicle: saline with Tween-80 104 % of control and 116 % of control | endpoint: mean survival time, dose: 8.5 mg/kg/injection, schedule: Q04DX002 (ip), vehicle: saline with Tween-80 93 % of control and 96 % of control | endpoint: mean survival time, dose: 9.4 mg/kg/injection, schedule: Q01DX009 (ip), vehicle: saline with Tween-80 92 % of control | endpoint: mean survival time, dose: 9.4 mg/kg/injection, schedule: Q01DX010 (ip), vehicle: saline 88 % of control and 92 % of control | endpoint: mean survival time, dose: 9.5 mg/kg/injection, schedule: Q01DX Z (ip), vehicle: other 100 % of control | endpoint: mean survival time, dose: 10.0 mg/kg/injection, schedule: Q03HX040 (ip), vehicle: acetone 106 % of control | endpoint: mean survival time, dose: 10.0 mg/kg/injection, schedule: Q06HX020 (ip), vehicle: acetone 110 % of control | endpoint: mean survival time, dose: 10.0 mg/kg/injection, schedule: Q12HX010 (ip), vehicle: acetone 100 % of control | endpoint: mean survival time, dose: 11.0 mg/kg/injection, schedule: Q01DX009 (ip), vehicle: saline with Tween-80 110 % of control and 118 % of control | endpoint: mean survival time, dose: 12.5 mg/kg/injection, schedule: Q01DX009 (ip), vehicle: saline with Tween-80 108 % of control | endpoint: mean survival time, dose: 17.0 mg/kg/injection, schedule: Q04DX002 (ip), vehicle: saline with Tween-80 100 % of control and 105 % of control | endpoint: mean survival time, dose: 18.8 mg/kg/injection, schedule: Q01DX009 (ip), vehicle: saline with Tween-80 103 % of control | endpoint: mean survival time, dose: 18.8 mg/kg/injection, schedule: Q01DX009 (ip), vehicle: saline 95 % of control and 92 % of control | endpoint: mean survival time, dose: 18.8 mg/kg/injection, schedule: Q01DX010 (ip), vehicle: saline 90 % of control and 91 % of control | endpoint: mean survival time, dose: 19.0 mg/kg/injection, schedule: Q01DX Z (ip), vehicle: other 101 % of control | endpoint: mean survival time, dose: 20.0 mg/kg/injection, schedule: Q01DX005 (ip), vehicle: acetone 101 % of control and 103 % of control | endpoint: mean survival time, dose: 20.0 mg/kg/injection, schedule: Q01DX009 (ip), vehicle: Klucel (hydroxypropylcellulose) (HPC) 99 % of control | endpoint: mean survival time, dose: 20.0 mg/kg/injection, schedule: Q01DX009 (ip), vehicle: saline with Tween-80 100 % of control | endpoint: mean survival time, dose: 20.0 mg/kg/injection, schedule: Q03HX040 (ip), vehicle: acetone 107 % of control | endpoint: mean survival time, dose: 20.0 mg/kg/injection, schedule: Q06HX020 (ip), vehicle: acetone 106 % of control | endpoint: mean survival time, dose: 20.0 mg/kg/injection, schedule: Q12HX010 (ip), vehicle: acetone 104 % of control | endpoint: mean survival time, dose: 25.0 mg/kg/injection, schedule: Q01DX009 (ip), vehicle: saline with Tween-80 98 % of control | endpoint: mean survival time, dose: 30.0 mg/kg/injection, schedule: Q03HX040 (ip), vehicle: saline 110 % of control | endpoint: mean survival time, dose: 34.0 mg/kg/injection, schedule: Q04DX002 (ip), vehicle: saline with Tween-80 100 % of control and 101 % of control | endpoint: mean survival time, dose: 37.5 mg/kg/injection, schedule: Q01DX009 (ip), vehicle: saline with Tween-80 98 % of control | endpoint: mean survival time, dose: 37.5 mg/kg/injection, schedule: Q01DX009 (ip), vehicle: saline 94 % of control and 95 % of control | endpoint: mean survival time, dose: 37.5 mg/kg/injection, schedule: Q01DX010 (ip), vehicle: saline 95 % of control and 91 % of control | endpoint: mean survival time, dose: 38.0 mg/kg/injection, schedule: Q01DX Z (ip), vehicle: other 96 % of control | endpoint: mean survival time, dose: 40.0 mg/kg/injection, schedule: Q01DX005 (ip), vehicle: acetone 100 % of control and 110 % of control | endpoint: mean survival time, dose: 40.0 mg/kg/injection, schedule: Q01DX009 (ip), vehicle: Klucel (hydroxypropylcellulose) (HPC) 101 % of control | endpoint: mean survival time, dose: 40.0 mg/kg/injection, schedule: Q01DX009 (ip), vehicle: saline with Tween-80 101 % of control | endpoint: mean survival time, dose: 40.0 mg/kg/injection, schedule: Q06HX020 (ip), vehicle: acetone 118 % of control | endpoint: mean survival time, dose: 40.0 mg/kg/injection, schedule: Q12HX010 (ip), vehicle: acetone 107 % of control | endpoint: mean survival time, dose: 50.0 mg/kg/injection, schedule: Q01DX001 (ip), vehicle: saline with Tween-80 97 % of control | endpoint: mean survival time, dose: 50.0 mg/kg/injection, schedule: Q01DX009 (ip), vehicle: saline with Tween-80 107 % of control | endpoint: mean survival time, dose: 50.0 mg/kg/injection, schedule: Q12HX010 (ip), vehicle: saline 96 % of control | endpoint: mean survival time, dose: 68.0 mg/kg/injection, schedule: Q04DX002 (ip), vehicle: saline with Tween-80 104 % of control and 105 % of control | endpoint: mean survival time, dose: 75.0 mg/kg/injection, schedule: Q01DX009 (ip), vehicle: saline with Tween-80 111 % of control | endpoint: mean survival time, dose: 75.0 mg/kg/injection, schedule: Q01DX009 (ip), vehicle: saline 94 % of control and 91 % of control | endpoint: mean survival time, dose: 75.0 mg/kg/injection, schedule: Q01DX010 (ip), vehicle: saline 98 % of control and 92 % of control | endpoint: mean survival time, dose: 80.0 mg/kg/injection, schedule: Q01DX005 (ip), vehicle: acetone 104 % of control and 106 % of control | endpoint: mean survival time, dose: 80.0 mg/kg/injection, schedule: Q01DX009 (ip), vehicle: Klucel (hydroxypropylcellulose) (HPC) 100 % of control | endpoint: mean survival time, dose: 80.0 mg/kg/injection, schedule: Q01DX009 (ip), vehicle: saline with Tween-80 105 % of control | endpoint: mean survival time, dose: 80.0 mg/kg/injection, schedule: Q12HX010 (ip), vehicle: acetone 115 % of control | endpoint: mean survival time, dose: 85.0 mg/kg/injection, schedule: Q01DX001 (ip), vehicle: other 94 % of control | [1] 98 % of control | endpoint: mean survival time, dose: 100.0 mg/kg/injection, schedule: Q01DX009 (ip), vehicle: saline with Tween-80 97 % of control | endpoint: mean survival time, dose: 100.0 mg/kg/injection, schedule: Q12HX010 (ip), vehicle: saline 98 % of control | endpoint: mean survival time, dose: 125.0 mg/kg/injection, schedule: Q01DX001 (ip), vehicle: other 109 % of control | endpoint: mean survival time, dose: 130.0 mg/kg/injection, schedule: Q01DX001 (ip), vehicle: other 101 % of control | endpoint: mean survival time, dose: 136.0 mg/kg/injection, schedule: Q04DX002 (ip), vehicle: saline with Tween-80 96 % of control and 98 % of control | endpoint: mean survival time, dose: 150.0 mg/kg/injection, schedule: Q01DX009 (ip), vehicle: saline with Tween-80 124 % of control | endpoint: mean survival time, dose: 150.0 mg/kg/injection, schedule: Q01DX009 (ip), vehicle: saline 93 % of control and 102 % of control | endpoint: mean survival time, dose: 160.0 mg/kg/injection, schedule: Q01DX009 (ip), vehicle: Klucel (hydroxypropylcellulose) (HPC) 107 % of control and 87 % of control | endpoint: mean survival time, dose: 160.0 mg/kg/injection, schedule: Q01DX009 (ip), vehicle: saline with Tween-80 109 % of control | endpoint: mean survival time, dose: 195.0 mg/kg/injection, schedule: Q01DX001 (ip), vehicle: other 94 % of control | [2] 101 % of control | endpoint: mean survival time, dose: 200.0 mg/kg/injection, schedule: Q01DX009 (ip), vehicle: saline with Tween-80 124 % of control | endpoint: mean survival time, dose: 240.0 mg/kg/injection, schedule: Q01DX009 (ip), vehicle: Klucel (hydroxypropylcellulose) (HPC) 86 % of control | endpoint: mean survival time, dose: 250.0 mg/kg/injection, schedule: Q01DX001 (ip), vehicle: other 100 % of control | endpoint: mean survival time, dose: 272.0 mg/kg/injection, schedule: Q04DX002 (ip), vehicle: saline with Tween-80 100 % of control and 105 % of control | [3] 98 % of control | endpoint: mean survival time, dose: 500.0 mg/kg/injection, schedule: Q01DX001 (ip), vehicle: other 112 % of control | endpoint: median survival time, dose: 18.8 mg/kg/injection, schedule: Q01DX009 (ip), vehicle: saline 100 % of control and 114 % of control | endpoint: median survival time, dose: 37.5 mg/kg/injection, schedule: Q01DX009 (ip), vehicle: saline 100 % of control and 114 % of control | endpoint: median survival time, dose: 75.0 mg/kg/injection, schedule: Q01DX009 (ip), vehicle: saline 100 % of control and 111 % of control | endpoint: median survival time, dose: 150.0 mg/kg/injection, schedule: Q01DX009 (ip), vehicle: saline 111 % of control and 121 % of control

COc1ccc(N=CC2CCCCC2=O)c([N+](=O)[O-])c1 (stereo not drawn)
inactive: endpoint: mean survival time, dose: 100.0 mg/kg/injection, schedule: Q01DX001 (ip), vehicle: saline 106 % of control | endpoint: mean survival time, dose: 200.0 mg/kg/injection, schedule: Q01DX001 (ip), vehicle: saline 95 % of control | endpoint: mean survival time, dose: 400.0 mg/kg/injection, schedule: Q01DX001 (ip), vehicle: saline 93 % of control

CS(=O)(=O)c1nc(Cl)c(Cl)[nH]1
inactive: [1] 100 % of control | [2] 102 % of control | [3] 104 % of control

COc1ccc(OC)c(NC(=O)SCCSC(=O)Nc2cc(OC)ccc2OC)c1
inactive: [4] 92 % of control | [5] 91 % of control | [6] 92 % of control

COc1ccc(/C=C2\N=C(c3ccc([N+](=O)[O-])cc3)OC2=O)cc1OC
inactive: [4] 91 % of control | [5] 93 % of control | [6] 101 % of control
